Results on five compounds are retold here after patent publication US3981868A.

In brackets after ≈: the same amount, converted by molar mass.

In test [1] the test system is diastolic blood pressure. Description: hypotensive activity in anesthetized rats (minimal dose lowering diastolic blood pressure about 10 mm.). Type of test: in vivo, Male Wistar strain rats. Particulars: Rattus norvegicus; intravenous; dose producing a decrease of about 10 mm. in diastolic blood pressure. The method, then:
This procedure is a modification of the technique described by Pike et al., Prostaglandins, Nobel Symposium 2, Stockholm, June, 1966; p. 165.
Male Wistar strain rats (Royal Hart Farms) averaging approximately 250 grams in weight were fastened to rat boards in a supine position by means of canvas vests and limb ties. The femoral area was infiltrated subcutaneously with lidocaine and the iliac artery and vein were exposed and cannulated. Arterial blood pressure (systolic/diastolic) was recorded using a Statham P23 Db pressure transducer-Offner dynograph system. To obtain a stable blood pressure, the animals were anesthetized before use with pentobarbital, 30 mg./kg. of body weight intravenously, and also were given hexamethonium bitartrate, 2 mg./kg., of body weight intravenously. The test compounds were prepared by ultrasonic dispersion in a saline-Tween 80 vehicle. A constant intravenous dose volume of 0.5 ml. was administered and test doses ranged from 0.1 to 10.0 mg./kg. of body weight. Increasing or decreasing doses were selected depending on the dose response obtained. In Table I below are set forth the minimal doses required to produce a decrease of about 10 mm. in diastolic blood pressure for typical compounds of the present invention.

Test [2] relates to Microsporum canis ATCC 10214. Description: agar-dilution streak-plate antifungal assay (1). It counts as cell-based. Particulars: ATCC10214, read-out: Minimal inhibitory conc. The method, then: (§1) The novel compounds of the present invention are also useful as antimicrobial agents. […] In this assay, the compounds to be tested are made up to contain 2.5 mg. of test compound per milliliter of solution. Observing sterile techniques, two-fold serial dilutions are made of each test solution. One milliliter of each of the original solutions and of each of the serial dilutions is then added to 9 ml. of warm sterile nutrient agar capable of supporting growth of the bacterial test cultures. A second set of agar dilutions is prepared identical to the first except that the nutrient agar is designed to support the growth of the fungal test cultures. […] The test bacteria and yeast-like fungi are prepared for use by growing in broth overnight. The spores of the filamentous fungi are harvested from mature agar slant cultures and are suspended in sterile physiological saline solution. A loopful of each of the resulting live suspensions is then, still employing sterile techniques, streaked upon the surfaces of each of the agar plates and the resulting streaked plates are then incubated. After an appropriate period of time, each of the streaks on each of the plates is inspected visually and the extent, if any, of bacterial or fungal growth is noted. The minimal inhibitory concentration (expressed in micrograms per milliliter) is defined as the concentration of test compound causing complete inhibition of growth of any particular organism. In a representative operation, and merely by way of illustration, the minimal inhibitory concentration of typical compounds of the present invention against a variety of test organisms as determined in the above-described assay are set forth in Tables II and III below: […]

For test [3], the system named is Microsporum gypseum ATCC 14683. The test can be described thus: agar-dilution streak-plate antifungal assay (2). It counts as cell-based. The following applies: Nannizzia gypsea, ATCC14683, read-out: Minimal inhibitory conc. The procedure:
as §1

In test [4] the test system is Trichophyton tonsurans NIH 662. The test can be described thus: agar-dilution streak-plate antifungal assay (3). Type of test: cell-based. The following applies: NIH662, read-out: Minimal inhibitory conc. The method, then:
as §1

Test [5] has as its system Trichophyton mentagrophytes E 11?
The test can be described thus: agar-dilution streak-plate antifungal assay (4). Type of test: cell-based. The following applies: read-out: Minimal inhibitory conc. The method, then: as §1

Test [6] deals with Trichophyton rubrum E 97. Description: agar-dilution streak-plate antifungal assay (5). It counts as cell-based. The following applies: E97, read-out: Minimal inhibitory conc. The method, then: as §1
The subject of test [7] is Mycobacterium smegmatis ATCC 606. The test can be described thus: agar-dilution streak-plate antibacterial assay (6). The following applies: Mycolicibacterium smegmatis, ATCC606, read-out: Minimal inhibitory conc. It counts as cell-based. The procedure:
as §1

Test [8] deals with Staphylococcus aureus Rose ATCC 14154. Description: agar-dilution streak-plate antibacterial assay (7). Type of test: cell-based. Particulars: ATCC14154, read-out: Minimal inhibitory conc. The method, then:
as §1

Test [9] deals with Streptococcus pyogenes C 203. Description: agar-dilution streak-plate antibacterial assay (8). It counts as cell-based. Particulars: C203, read-out: Minimal inhibitory conc. The method, then: as §1
In test [10] the test system is gastric acid secretion. Description: inhibition of gastric acid secretion (pylorus-ligated rat, Shay rat). Particulars: intraduodenal dose 100 mg./kg. body weight, 3 hours, 20% or more considered active. Type of test: in vivo, rats (male, CFE strain). The procedure:
The novel compounds of the present invention are also effective inhibitors of gastric acid secretion and of ulcer development in experimental animals, and thus are potentially valuable as agents for the control of gastric acid secretion and of gastric erosion and as anti-ulcer agents. Gastric acid secretion inhibitory action is usually measured by the "Shay rat" procedure ^(1,2) with some modifications as follows.
The rats (male, CFE strain) were starved for 48 hours (water was given ad libitum) to permit evacuation of stomach contents. On the morning of the experiment, under ether anesthesia, the abdominal region was shaved and a midline incision (1-11/2 inches) was made with a scalpel. With the help of a closed curved hemostat the duodenum was picked up. Upon getting the duodenum into view fingers were used to pull the stomach through the opening, the stomach was then gently manipulated with fingers to rid the stomach of air and residual matter which were pushed through the pylorus. Two 5-inch sutures were drawn under the pyloric-duodenal juncture. A ligature, at the juncture, was formed with one of the threads. The second ligature was also formed by not tightened.
The test compound or the vehicle, usually 1 ml./100 g. body weight, were injected into the duodenum as close as possible to the first ligature. After injection the second ligature was tightened below the injection site to minimize leakage. The stomach was placed back through the opening into the abdominal cavity, the area of incision was washed with saline and the incision was closed with autoclips. (Ocasionally, instead of an intraduodenal injection, animals were dosed by the oral or subcutaneous route. In the latter case, dosing was done thirty to sixty minutes before the operation).
The abdominal cavity was exposed by cutting with scissors and the esophagus close to the stomach was clamped off with a hemostat, the stomach was removed by cutting above the hemostat (the espohagus was cut) and between the two sutures. Extraneous tissue was removed, the stomach washed with saline and blotted on gauze. A slit was carefully made in the stomach which was held over a funnel and the contents were collected in a centrifuge tube. The stomach was further cut along the outside edge and turned inside out. Two ml. of water were used to wash the stomach contents into the respective centrifuge tube. The combined stomach contents and wash were then centrifuged out for 10 minutes in the International Size 2 Centrifuge (setting at 30). The supernatant was collected, volume measured and recorded, 2 drops of phenolphthalein indicator (1% in 95% ethanol) were added and the solution was titrated with 0.02N NaOH (or with 0.04N NaOH when large volumes of stomach contents were encountered) to pH 8.4 (because of usual coloring of the stomach contents, phenolphthalein was only used to permit visual indication that the end point was near) and the amount of acid present was calculated.
Compounds inducing inhibition of gastric acid secretion of 20% or more were considered active. In a representative operation, and merely by way of illustration, the results obtained with this assay with typical compounds of the present invention are given in Table IIIA.

Test [11] relates to dl-PGE1-induced contraction of gerbil colon. Description: inhibition of dl-PGE1-induced contraction of gerbil colon. Particulars: sub-maximal challenge, 20 ng./ml. dl-PGE1; 50% inhibition of maximum response; approximate.
Experimental: Testing for prostaglandin antagonist action is carried out in the following manner.
Sections of ascending colon, approximately 20 mm. long, from mature male gerbils (Meriones unguiculatus) weighing 70-80 g. were mounted in DeJalon's solution (154 mM NaCl; 5.95 mM NAHCO3 ; 278 mM glucose, 5.64 mM KCl and .27 mM Cacl2 in 20 ml. tissue baths) (L. and K Glass Co., Lynnhurst, N.J.). The medium was continually gassed with a mixture of 95% 02 -5% CO2 and maintained at 37°C. The tissues were suspended via silk suture threads between a glass hook at the base and a model FT .03C force displacement transducer (Grass Instrument, Quincy, Mass.).
After mounting, tissues were allowed to stabilize 15-20 minutes during which time adjustments were made to establish and maintain a 0.5 g. resting tension on the muscle. Thereafter, test cycles of 3-5 minutes were begun and consisted of a 1 minute exposure to the potential antagonist, if called for, followed by a 1 minute exposure to the prostaglandin agonist, a 15-30 sec. washout and a recovery period of 2-2.5 minutes. […] During the washout period, the tissue was rinsed with a measured amount equalling 8 volumes of medium. Muscle relaxation was virtually complete by the end of the washout period.
Following stabilization, muscles were exposed 2 to 3 times to this concentration of dl-PGE1 until a consistent response was recorded. Once maximal responses are established, test cycles with potential antagonists were commenced and were followed alternatively with prostaglandin-only test cycle. […] The contraction of the muscle induced by 200 ng./ml. dl-PGE1 following exposure to a given concentration of the potential antagonist was always compared to the response of the tissue to that level of dl-PGE1 in the immediately preceding cycle. Using a series of potential antagonist concentrations, an approximate ID50 (concentration at which 50% inhibition was observed) was established.
Test [12] has as its system basal gastric acid secretion. The test can be described thus: inhibition of basal gastric acid secretion (acute gastric fistula rat). It counts as in vivo, Female Sprague-Dawley rats. Particulars: 10 mg./kg. intraduodenal. The method, then: Inhibition of basal gastric acid secretion was determined in the acute gastric fistula rat as follows. Female Sprague-Dawley rats (Charles River Laboratories) weighing 140-160 grams are fasted in individual cages for 18-24 hours. The rats are then lightly anesthetized with ether and their front teeth extracted to avoid destruction of the plastic cannula. A midline incision is then made and the stomach and duodenum exposed. A flanged polyvinyl tube is inserted into the fundic portion of the stomach and secured with a purse string suture line using 4-0 Mersilene. The rat is then dosed by injection of the compound into the duodenum (1.0 ml. per 100 grams body weight). After dosing, the abdominal wall and skin are closed using metal wound clips. The rat is replaced in a cage containing a longitudinal slit to allow the polyvinyl tube to hang freely. An 8 ml. plastic collecting tube is attached to the flanged cannula and hangs freely below the cage. The first 30 minute sample is discarded designating this time as zero. The collecting tube is attached again and samples removed at the end of 60 and 120 minutes. The hourly samples are then transferred to a 15 ml. centrifuge tube and centrifuged for 5-10 minutes. Total and sediment volume are then recorded with the supernatant volume being used as volume of secretion. A 1 ml. or less aliquot is then removed and placed in a 50 ml. beaker containing 10 ml. of distilled water. This sample is then titrated using 0.01N NaOH to pH 7.0 using a Beckman zeromatic pH meter. Volume, titratable acidity (meq/L) and total acid output (μ eq/hour) are recorded. Percent inhibition is determined by comparison with the appropriate control. Groups of three rats were used. All compounds are administered in vehicle (0.5% methocel, 0.4% Tween 80, saline) at a constant volume of 1 ml./100 gram rat. Samples were sonicated with care to prevent overheating.

Test [13] has as its system gerbil ascending colon. Description: contraction of gerbil colon by dl-PGE1. Particulars: final concentration of 200 ng./ml.; preliminary tests.
Experimental: Sections of ascending colon, approximately 20 mm. long, from mature male gerbils (Meriones unguiculatus) weighing 70-80 g. were mounted in DeJalon's solution (154 mM NaCl; 5.95 mM NAHCO3 ; 278 mM glucose, 5.64 mM KCl and .27 mM Cacl2 in 20 ml. tissue baths) (L. and K Glass Co., Lynnhurst, N.J.). The medium was continually gassed with a mixture of 95% 02 -5% CO2 and maintained at 37°C. The tissues were suspended via silk suture threads between a glass hook at the base and a model FT .03C force displacement transducer (Grass Instrument, Quincy, Mass.). Contractions were recorded on a Poly-Viso polyraph (Sanborn Co., Cambridge, Mass.
After mounting, tissues were allowed to stabilize 15-20 minutes during which time adjustments were made to establish and maintain a 0.5 g. resting tension on the muscle. Thereafter, test cycles of 3-5 minutes were begun and consisted of a 1 minute exposure to the potential antagonist, if called for, followed by a 1 minute exposure to the prostaglandin agonist, a 15-30 sec. washout and a recovery period of 2-2.5 minutes. […] During the washout period, the tissue was rinsed with a measured amount equalling 8 volumes of medium.
Following stabilization, muscles were exposed 2 to 3 times to this concentration of dl-PGE1 until a consistent response was recorded. […]

In turn, `CCCCCC/C=C/[C@H]1CCC(=O)[C@@H]1CCCCCCC(=O)NCCCN(C)C` (relative stereo) yielded a minimal effective dose in test [1] of 0.4 mg/kg. Further, the MIC is 100 µg/mL (≈ 246 µM) in test [2]; 100 µg/mL (≈ 246 µM) in test [3]; 100 µg/mL (≈ 246 µM) in test [4]; 25 µg/mL (≈ 61.5 µM) in test [5]; 100 µg/mL (≈ 246 µM) in [6]; 10 µg/mL (≈ 24.6 µM) in [7]. For the same compound, the MIC is 50 µg/mL (≈ 123 µM) in test [8] and 10 µg/mL (≈ 24.6 µM) in test [9]. Also, the “Percent Inhibition of gastric acid secretion” value in test [10] was 76%. For the same compound, in test [11], the “ID50 vs. 20 ng. of PGE1 /ml.” value stood at 0.5 µg/mL.

For `CCCCCC/C=C/[C@H]1CCC(=O)[C@@H]1CCCCCCC(=O)N(C(=O)Nc1ccc(N(C)C)cc1)c1ccc(N(C)C)cc1` (relative stereo) [4,4'-bis(dimethylamino)-N-{7-[trans-2-(1-octenyl)-5-oxocyclopentyl]-heptanoyl}carbanilide], in [12], the “% Inhibition after 120 minutes, Total Acid Output” value is reported as 72% and the “% Inhibition after 120 minutes, Total Acidity” value amounted to 60%.

In turn, `CCCCCC/C=C/[C@H]1CCC(=O)[C@@H]1CCCCCCC(=O)NN(C)C` (relative stereo) [N-(dimethylamino)-9-oxo-13-trans-prostenamide] displayed a minimal effective dose in test [1] of 2 mg/kg. In addition, the MIC in test [2] was determined as 25 µg/mL (≈ 68.6 µM); in [3], 25 µg/mL (≈ 68.6 µM); in test [4], 25 µg/mL (≈ 68.6 µM); in test [5], 25 µg/mL (≈ 68.6 µM); in test [6] it was 25 µg/mL (≈ 68.6 µM); in [7] it was 10 µg/mL (≈ 27.4 µM). For the same compound, the MIC was 25 µg/mL (≈ 68.6 µM) in test [8] and 10 µg/mL (≈ 27.4 µM) in [9]. Besides, in [10], the “Percent Inhibition of gastric acid secretion” value was determined as 58%. Besides, the “ID50 vs. 20 ng. of PGE1 /ml.” value in test [11] worked out at 0.5 µg/mL.

`CCCCCC/C=C/[C@H]1CCC(=O)[C@@H]1CCCCCCC(=O)Nc1cccnc1` (relative stereo) [N-(pyridyl-3)-9-oxo-13-trans-prostenamide] returned a minimal effective dose in test [1] of 2 to 8 mg/kg. In addition, the MIC in [9] was found to be 5 µg/mL (≈ 12.5 µM). Moreover, in test [12], the “% Inhibition after 120 minutes, Total Acid Output” value came out at 54% and the “% Inhibition after 120 minutes, Total Acidity” value is given as 30%.

Consider `CCCCC[C@H](O)/C=C/[C@H]1[C@H](O)CC(=O)[C@@H]1CCCCCCC(=O)O` (relative stereo) [dl-PGE1, prostaglandin-E1], for which the muscle contraction result in test [13] is listed as “maximal muscle contraction”.
